Measured values taken from patent US7414077B2, “Therapeutic intervention to mimic the effect of caloric restriction” (priority 1999, dated 2008).

Legend:
5′ deiodinase [1] = assay: effect of in vitro free fatty acids on 5′ deiodinase activity (thyroid hormone synthesis in vitro); format: biochemical; settings: 1 mM free fatty acid; as a function of substrate concentration
Description: (§1) Reaction velocities were measured under control conditions (▴) and in the presence of 1 mM free fatty acids palmitic acid (●) and oleic acid (▪). Each point on the curve represents the mean of triplicate determinations. Lineweaver-Burk plots described lines characterized by r^2 from 0.988-0.999.

5′ deiodinase [2] = assay: 5′ deiodinase activity as a function of substrate concentration (Lineweaver-Burk), control conditions; format: biochemical; settings: in vitro, without free fatty acids, mean of triplicate determinations, Lineweaver-Burk plot, FIG. 2A
Description: as §1

Q: `CCCCCCCC/C=C\CCCCCCCC(=O)O` [oleic acid] was tested. Which “effect on thyroid hormone synthesis in vitro (5′ deiodinase activity)” value (5′ deiodinase [1]) did it give?
A: inhibit thyroid hormone synthesis in vitro

Q: For `N[C@@H](Cc1ccc(Oc2cc(I)c(O)c(I)c2)c(I)c1)C(=O)O` [rT3], which Km (5′ deiodinase [2]) is on record?
A: 2.38 µM

Q: How did the “effect on thyroid hormone synthesis in vitro (5′ deiodinase activity)” value (5′ deiodinase [1]) turn out when `CCCCCCCCCCCCCCCC(=O)O` [palmitic acid] was run?
A: inhibit thyroid hormone synthesis in vitro
